According to ChEMBL document CHEMBL5113392, “Novel hybrid pyrrolidinedione-thiazolidinones as potential anticancer agents: Synthesis and biological evaluation” (Eur J Med Chem, 2022):

What was measured:
HOP-92 [1] = assay: Anticancer activity against human HOP-92 cells assessed as growth inhibition incubated for 48 hrs by SRB assay; assay type: functional
UACC-62 = assay: Anticancer activity against human UACC-62 cells assessed as lethality incubated for 48 hrs by SRB assay; assay type: functional; conditions: read-out: LC50 (the source's name)
SNB-19 [2] = assay: Anticancer activity against human SNB-19 cells assessed as lethality incubated for 48 hrs by SRB assay; assay type: functional; conditions: read-out: LC50 (the source's name)
MDA-MB-231 = assay: Anticancer activity against human MDA-MB-231 cells assessed as cell growth inhibition incubated for 72 hrs by MTT assay; assay type: functional
T47D = assay: Anticancer activity against human T47D cells assessed as total growth inhibition incubated for 48 hrs by SRB assay; assay type: functional
UACC-257 [3] = assay: Anticancer activity against human UACC-257 cells assessed as lethality incubated for 48 hrs by SRB assay; assay type: functional; conditions: read-out: LC50 (the source's name)
NCI/ADR-RES = assay: Anticancer activity against human NCI/ADR-RES cells assessed as growth inhibition incubated for 48 hrs by SRB assay; assay type: functional
HOP-62 = assay: Anticancer activity against human HOP-62 cells assessed as lethality incubated for 48 hrs by SRB assay; assay type: functional; conditions: read-out: LC50 (the source's name)
OVCAR-4 = assay: Anticancer activity against human OVCAR-4 cells assessed as lethality incubated for 48 hrs by SRB assay; assay type: functional; conditions: read-out: LC50 (the source's name)
HCT-116 [4] = assay: Anticancer activity against human HCT-116 cells assessed as total growth inhibition incubated for 48 hrs by SRB assay; assay type: functional
MOLT-4 = assay: Anticancer activity against human MOLT-4 cells assessed as growth inhibition incubated for 48 hrs by SRB assay; assay type: functional
HOP-92 [5] = assay: Anticancer activity against human HOP-92 cells assessed as lethality incubated for 48 hrs by SRB assay; assay type: functional; conditions: read-out: LC50 (the source's name)
MDA-MB-468 [6] = assay: Anticancer activity against human MDA-MB-468 cells assessed as growth inhibition incubated for 48 hrs by SRB assay; assay type: functional
SW-620 [7] = assay: Anticancer activity against human SW-620 cells assessed as lethality incubated for 48 hrs by SRB assay; assay type: functional; conditions: read-out: LC50 (the source's name)
SF-539 [8] = assay: Anticancer activity against human SF-539 cells assessed as growth inhibition incubated for 48 hrs by SRB assay; assay type: functional
HCC 2998 [9] = assay: Anticancer activity against human HCC 2998 cells assessed as lethality incubated for 48 hrs by SRB assay; assay type: functional; conditions: read-out: LC50 (the source's name)
MDA-MB-468 [10] = assay: Anticancer activity against human MDA-MB-468 cells assessed as total growth inhibition incubated for 48 hrs by SRB assay; assay type: functional
[11] = Selectivity index, ratio of GI50 for human HaCaT cells to GI50 for human HCT116-p53-null cells; assay type: toxicity; conditions: HaCaT cells versus HCT116-p53-null cells, read-out: RatioGI50
CCRF-CEM = assay: Anticancer activity against human CCRF-CEM cells assessed as lethality incubated for 48 hrs by SRB assay; assay type: functional; conditions: read-out: LC50 (the source's name)
UACC-257 [12] = assay: Anticancer activity against human UACC-257 cells assessed as growth inhibition incubated for 48 hrs by SRB assay; assay type: functional
CAKI-1 [13] = assay: Anticancer activity against human CAKI-1 cells assessed as lethality incubated for 48 hrs by SRB assay; assay type: functional; conditions: read-out: LC50 (the source's name)
SN12C = assay: Anticancer activity against human SN12C cells assessed as total growth inhibition incubated for 48 hrs by SRB assay; assay type: functional
PC-3 [14] = assay: Anticancer activity against human PC-3 cells assessed as lethality incubated for 48 hrs by SRB assay; assay type: functional; conditions: read-out: LC50 (the source's name)
CAKI-1 [15] = assay: Anticancer activity against human CAKI-1 cells assessed as total growth inhibition incubated for 48 hrs by SRB assay; assay type: functional
OVCAR-8 = assay: Anticancer activity against human OVCAR-8 cells assessed as growth inhibition incubated for 48 hrs by SRB assay; assay type: functional
NCI-H226 = assay: Anticancer activity against human NCI-H226 cells assessed as growth inhibition incubated for 48 hrs by SRB assay; assay type: functional
UO-31 = assay: Anticancer activity against human UO-31 cells assessed as inhibition of cell growth at 10 uM incubated for 48 hrs by SRB assay; assay type: functional; conditions: UO-31, 48 h, values are per cent of control
U-251 [16] = assay: Anticancer activity against human U-251 cells assessed as cell growth inhibition incubated for 72 hrs by MTT assay; assay type: functional
MCF7 [17] = assay: Anticancer activity against human MCF7 cells assessed as total growth inhibition incubated for 48 hrs by SRB assay; assay type: functional
SK-MEL-28 = assay: Anticancer activity against human SK-MEL-28 cells assessed as lethality incubated for 48 hrs by SRB assay; assay type: functional; conditions: read-out: LC50 (the source's name)
SNB-19 [18] = assay: Anticancer activity against human SNB-19 cells assessed as growth inhibition incubated for 48 hrs by SRB assay; assay type: functional
PC-3 [19] = assay: Anticancer activity against human PC-3 cells assessed as growth inhibition incubated for 48 hrs by SRB assay; assay type: functional
U-251 [20] = assay: Anticancer activity against human U-251 cells assessed as growth inhibition incubated for 48 hrs by SRB assay; assay type: functional
ACHN = assay: Anticancer activity against human ACHN cells assessed as growth inhibition incubated for 48 hrs by SRB assay; assay type: functional
TK-10 = assay: Anticancer activity against human TK-10 cells assessed as lethality incubated for 48 hrs by SRB assay; assay type: functional; conditions: read-out: LC50 (the source's name)
MCF7 [21] = assay: Anticancer activity against human MCF7 cells assessed as lethality incubated for 48 hrs by SRB assay; assay type: functional; conditions: read-out: LC50 (the source's name)
LOX IMVI = assay: Anticancer activity against human LOX IMVI cells assessed as inhibition of cell growth at 10 uM incubated for 48 hrs by SRB assay; values are per cent of control
HCT-116 [22] = assay: Anticancer activity against human HCT-116 cells assessed as growth inhibition incubated for 48 hrs by SRB assay; assay type: functional
U-251 [23] = assay: Anticancer activity against human U-251 cells assessed as total growth inhibition incubated for 48 hrs by SRB assay; assay type: functional
SK-MEL-2 [24] = assay: Anticancer activity against human SK-MEL-2 cells assessed as total growth inhibition incubated for 48 hrs by SRB assay; assay type: functional
NCI-H23 = assay: Anticancer activity against human NCI-H23 cells assessed as total growth inhibition incubated for 48 hrs by SRB assay; assay type: functional
SF-539 [25] = assay: Anticancer activity against human SF-539 cells assessed as lethality incubated for 48 hrs by SRB assay; assay type: functional; conditions: read-out: LC50 (the source's name)
MDA-MB-435 [26] = assay: Anticancer activity against human MDA-MB-435 cells assessed as lethality incubated for 48 hrs by SRB assay; assay type: functional; conditions: read-out: LC50 (the source's name)
EKVX = assay: Anticancer activity against human EKVX cells assessed as lethality incubated for 48 hrs by SRB assay; assay type: functional; conditions: read-out: LC50 (the source's name)
HCC 2998 [27] = assay: Anticancer activity against human HCC 2998 cells assessed as inhibition of cell growth at 10 uM incubated for 48 hrs by SRB assay; assay type: functional; conditions: HCC 2998, 48 h, values are per cent of control
SW-620 [28] = assay: Anticancer activity against human SW-620 cells assessed as total growth inhibition incubated for 48 hrs by SRB assay; assay type: functional
SK-MEL-2 [29] = assay: Anticancer activity against human SK-MEL-2 cells assessed as lethality incubated for 48 hrs by SRB assay; assay type: functional; conditions: read-out: LC50 (the source's name)
PC-3 [30] = assay: Anticancer activity against human PC-3 cells assessed as total growth inhibition incubated for 48 hrs by SRB assay; assay type: functional
MDA-MB-435 [31] = assay: Anticancer activity against human MDA-MB-435 cells assessed as growth inhibition incubated for 48 hrs by SRB assay; assay type: functional

Question: For `O=C1CC(N2C(=O)/C(=C/C(Cl)=C/c3ccc([N+](=O)[O-])cc3)SC2=S)C(=O)N1c1ccc(Cl)cc1` (centres undefined), which GI50 (HOP-92 [1]) is on record?
Answer: Its GI50 is 2.58 µM.

Question: And the CC50 (UACC-62)?
Answer: Its CC50 is 12 µM.

Question: And the CC50 (SNB-19 [2])?
Answer: Its CC50 is 7.54 µM.

Question: And the GI50 (MDA-MB-231)?
Answer: The GI50 was 6.45 µM.

Question: And the TGI (T47D)?
Answer: Its TGI is 6.34 µM.

Question: And the CC50 (UACC-257 [3])?
Answer: The CC50 was greater than 100 µM.

Question: And the GI50 (NCI/ADR-RES)?
Answer: Its GI50 is 1.01 µM.

Question: And the CC50 (HOP-62)?
Answer: The CC50 was greater than 100 µM.

Question: What about the CC50 (OVCAR-4) of the same compound?
Answer: The CC50 was greater than 100 µM.

Question: What about the TGI (HCT-116 [4]) of the same compound?
Answer: Its TGI is 3.04 µM.

Question: And the GI50 (MOLT-4)?
Answer: Its GI50 is 0.596 µM.

Question: What about the CC50 (HOP-92 [5]) of the same compound?
Answer: Its CC50 is greater than 100 µM.

Question: What about the GI50 (MDA-MB-468 [6]) of the same compound?
Answer: Its GI50 is 1.33 µM.

Question: And the CC50 (SW-620 [7])?
Answer: The CC50 was greater than 100 µM.

Question: And the GI50 (SF-539 [8])?
Answer: Its GI50 is 1.69 µM.

Question: What about the CC50 (HCC 2998 [9]) of the same compound?
Answer: Its CC50 is 5.76 µM.

Question: And the TGI (MDA-MB-468 [10])?
Answer: Its TGI is 3.1 µM.

Question: And the selectivity ratio [11]?
Answer: Its selectivity ratio is 10.7.

Question: What about the CC50 (CCRF-CEM) of the same compound?
Answer: The CC50 was greater than 100 µM.

Question: And the GI50 (UACC-257 [12])?
Answer: The GI50 was 2.92 µM.

Question: What about the CC50 (CAKI-1 [13]) of the same compound?
Answer: Its CC50 is 9.52 µM.

Question: And the TGI (SN12C)?
Answer: Its TGI is 11.1 µM.

Question: And the CC50 (PC-3 [14])?
Answer: Its CC50 is greater than 100 µM.

Question: And the TGI (CAKI-1 [15])?
Answer: The TGI was 3.28 µM.

Question: What about the GI50 (OVCAR-8) of the same compound?
Answer: Its GI50 is 0.832 µM.

Question: And the GI50 (NCI-H226)?
Answer: The GI50 was 1.92 µM.

Question: And the growth, % of control at 10 µM (UO-31)?
Answer: Its growth, % of control at 10 µM is -42.9%.

Question: What about the GI50 (U-251 [16]) of the same compound?
Answer: The GI50 was 8.93 µM.

Question: And the TGI (MCF7 [17])?
Answer: Its TGI is greater than 100 µM.

Question: What about the CC50 (SK-MEL-28) of the same compound?
Answer: The CC50 was 9.41 µM.

Question: And the GI50 (SNB-19 [18])?
Answer: Its GI50 is 1.17 µM.

Question: And the GI50 (PC-3 [19])?
Answer: Its GI50 is 1.34 µM.

Question: What about the GI50 (U-251 [20]) of the same compound?
Answer: Its GI50 is 0.477 µM.

Question: What about the GI50 (ACHN) of the same compound?
Answer: Its GI50 is 1.34 µM.

Question: And the CC50 (TK-10)?
Answer: The CC50 was greater than 100 µM.

Question: What about the CC50 (MCF7 [21]) of the same compound?
Answer: The CC50 was greater than 100 µM.

Question: What about the growth percent at 10 µM (LOX IMVI) of the same compound?
Answer: The growth percent at 10 µM was -71.7%.

Question: What about the GI50 (HCT-116 [22]) of the same compound?
Answer: The GI50 was 1.35 µM.

Question: What about the TGI (U-251 [23]) of the same compound?
Answer: The TGI was 2.47 µM.

Question: What about the TGI (SK-MEL-2 [24]) of the same compound?
Answer: The TGI was 32.1 µM.

Question: And the TGI (NCI-H23)?
Answer: Its TGI is 4.31 µM.

Question: What about the CC50 (SF-539 [25]) of the same compound?
Answer: Its CC50 is greater than 100 µM.

Question: What about the CC50 (MDA-MB-435 [26]) of the same compound?
Answer: The CC50 was 6.98 µM.

Question: What about the CC50 (EKVX) of the same compound?
Answer: Its CC50 is greater than 100 µM.

Question: And the growth, % of control at 10 µM (HCC 2998 [27])?
Answer: The growth, % of control at 10 µM was -22.9%.

Question: And the TGI (SW-620 [28])?
Answer: The TGI was 3.9 µM.

Question: And the CC50 (SK-MEL-2 [29])?
Answer: The CC50 was greater than 100 µM.

Question: What about the TGI (PC-3 [30]) of the same compound?
Answer: Its TGI is 4.15 µM.

Question: What about the GI50 (MDA-MB-435 [31]) of the same compound?
Answer: Its GI50 is 1.65 µM.
